The target of assay [1] is pancreatic lipase. The note with it: cited from earlier work.
Assay [2] addresses T1, pancreatic lipase from porcine pancreas type II (Sus scrofa, UniProt P00591).
T1 sequence (P00591 1-450): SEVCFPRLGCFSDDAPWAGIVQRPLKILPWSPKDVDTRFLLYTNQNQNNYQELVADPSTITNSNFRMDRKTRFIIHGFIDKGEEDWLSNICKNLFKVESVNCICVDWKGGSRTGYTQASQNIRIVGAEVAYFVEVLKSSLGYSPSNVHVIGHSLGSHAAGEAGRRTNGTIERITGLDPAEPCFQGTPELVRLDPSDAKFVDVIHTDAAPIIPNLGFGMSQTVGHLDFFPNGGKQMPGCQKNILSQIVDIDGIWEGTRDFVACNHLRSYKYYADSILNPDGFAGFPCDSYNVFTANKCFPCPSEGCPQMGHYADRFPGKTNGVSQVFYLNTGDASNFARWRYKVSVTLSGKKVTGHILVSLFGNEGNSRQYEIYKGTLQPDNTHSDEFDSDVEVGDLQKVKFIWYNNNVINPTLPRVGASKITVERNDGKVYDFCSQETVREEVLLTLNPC
As to the kind of experiment: Pancreatic lipase inhibition in vitro (p-nitrophenyl butyrate hydrolysis, absorbance 410 nm). As to conditions: curcuminoid chemical standards. The class given is biochemical.

The target of assay [3] is T2, pancreatic lipase (Sus scrofa, UniProt P00591).
T2 sequence (P00591 1-450): T1 sequence (P00591 1-450)
As to the kind of experiment: Affinity screening by ultrafiltration coupled with HPLC. The class given is binding, porcine. The note with it: from change of HPLC peak area at 425 nm, turmeric extract, versus heat-inactivated enzyme.

For assay [4], the target named is T2, pancreatic lipase. The assay is described as follows: Enzyme inhibition kinetics (Lineweaver-Burk analysis). It counts as biochemical, porcine. The note with it: for inhibition type: Lineweaver-Burk plots, Vmax unchanged; for reversibility of inhibition: plots of v versus enzyme concentration.
The target of assay [5] is T2, pancreatic lipase. The assay is described as follows: Circular dichroism measurement of secondary structure. Also on record: species or system porcine. As to conditions: for β-Turn (%) of pancreatic lipase / α-Helix (%) of pancreatic lipase / β-Sheet (%) of pancreatic lipase / Random Coil (%) of pancreatic lipase: lipase:compound molar ratio 1:1, 37 °C, 5 min; for β-Turn (%) of pancreatic lipase: lipase alone 14.8; for α-Helix (%) of pancreatic lipase: lipase alone 17.7; for β-Sheet (%) of pancreatic lipase: lipase alone 25.4; for Random Coil (%) of pancreatic lipase: lipase alone 42.1; for decrease of β-sheet of pancreatic lipase / increase of α-helix content of pancreatic lipase: relative to pancreatic lipase alone. (Circular dichroism is widely used to follow secondary structure.)

Assay [6] has as its target T2, pancreatic lipase. The assay is described as follows: Fluorescence spectrometry (tryptophan fluorescence quenching, Stern-Volmer). The note with it: for ΔH (enthalpy) / ΔS (entropy change): Van't Hoff, 298 and 310 K.

The text below walks through data of article PMC11314295, “Discovery of Curcuminoids as Pancreatic Lipase Inhibitors from Medicine-and-Food Homology Plants” (Nutrients, 2024).

Values after ≈ are worked out from the molar mass of the structure shown. “Also recorded” adds a separate entry of the source.

For orientation: IC50 means the midpoint of a concentration-inhibition curve. Turning to `C=C(C)[C@@H]1CC[C@]2(C(=O)O[C@@H]3O[C@H](CO[C@@H]4O[C@H](CO)[C@@H](O[C@@H]5O[C@@H](C)[C@H](O)[C@@H](O)[C@H]5O)[C@H](O)[C@H]4O)[C@@H](O)[C@H](O)[C@H]3O)CC[C@]3(C)[C@H](C[C@H]4OC(=O)C[C@@H](O)[C@]5(C)[C@@H]4[C@@]3(C)CC[C@H]5C(=C)C)[C@@H]12` [chiisanoside], at pancreatic lipase [1], the 50% inhibitory concentration (IC50) is 740 µg/mL (≈ 775 µM).

The term Ki denotes the dissociation constant of the complex between target and ligand, obtained from inhibition or displacement. Take `COc1cc(/C=C/C(O)=C/C(=O)/C=C/c2ccc(O)cc2)ccc1O` [demethoxycurcumin, Demethoxycurcumin]: in assay [2], half-maximal inhibition (IC50) was put at 3310 µM. Further, the “binding rate to pancreatic lipase” value at pancreatic lipase [3] is 49.33%. Also, on pancreatic lipase [4], the inhibition type result is “competitive inhibitors; also recorded: reversible competitive inhibition” and the reversibility of inhibition entry is “reversible”. In addition, the inhibition constant (Ki) at pancreatic lipase [4] (pancreatic lipase 5 mg/mL, p-nitrophenyl butyrate substrate, read-out: Ki (inhibition constant)) was 840 ± 40 µM. At pancreatic lipase [5], the “β-Turn (%) of pancreatic lipase” value is 16.5%, the “α-Helix (%) of pancreatic lipase” value is recorded as 26.4%, the “β-Sheet (%) of pancreatic lipase” value worked out at 16.9% and the “Random Coil (%) of pancreatic lipase” value is reported as 40.2%. Moreover, on pancreatic lipase [5], the “decrease of β-sheet of pancreatic lipase” value is reported as 33.46% and the “increase of α-helix content of pancreatic lipase” value amounted to 49.15%. In addition, at pancreatic lipase [6], the “Ka (binding constant), bound stated” value is above 10000 L/mol; the “Kq, compared with maximum dynamic quenching constant” value was above 2e+10 M⁻¹ s⁻¹; the “binding sites” value was around 1; the “ΔH (enthalpy)” value was -7.483 ± 0.0526 kcal/mol. Also, the “ΔS (entropy change)” value at pancreatic lipase [6] is on record as −18.82 ± 0.09 J·mol^−1·K. On pancreatic lipase [6] (298 K), the “Kq (fluorescence-quenching rate constant)” value is given as 1.64 ± 0.13 ×10^12 L·mol^−1·s^−1, the “n (binding sites)” value was found to be 1.12 ± 0.04 and the “ΔG (free energy)” value is -5.564 ± 0.0335 kcal/mol. On pancreatic lipase [6] (310 K), the “Kq (fluorescence-quenching rate constant)” value is 3.61 ± 0.24 ×10^12 L·mol^−1·s^−1, the “n (binding sites)” value is 1.40 ± 0.01 and the “ΔG (free energy)” value is -6.09 ± 0.0502 kcal/mol. For the same compound, the “maximum emission peak of pancreatic lipase after addition (blueshift from 350 nm)” value at pancreatic lipase [6] (excitation 280 nm) amounted to 342 nm.

For the compound `COc1cc(/C=C/C(=O)CC(=O)/C=C/c2ccc(O)c(OC)c2)ccc1O` [curcumin, Curcumin], the “binding rate to pancreatic lipase” value on pancreatic lipase [3] came to 54.69%. Besides, at pancreatic lipase [4], the inhibition type entry is on record as “competitive inhibitors; also recorded: reversible competitive inhibition” and the reversibility of inhibition entry was “reversible”. Further, at pancreatic lipase [5], the “β-Turn (%) of pancreatic lipase” value is 15.7%, the “α-Helix (%) of pancreatic lipase” value came to 34.3%, the “β-Sheet (%) of pancreatic lipase” value came to 15.3% and the “Random Coil (%) of pancreatic lipase” value is 34.7%. Also, on pancreatic lipase [5], the “decrease of β-sheet of pancreatic lipase” value is on record as 39.76% and the “increase of α-helix content of pancreatic lipase” value worked out at 93.78%. At pancreatic lipase [6], the “Ka (binding constant), bound stated” value was above 10000 L/mol; the “Kq, compared with maximum dynamic quenching constant” value is above 2e+10 M⁻¹ s⁻¹; the “binding sites” value was around 1; the “ΔH (enthalpy)” value was -8.098 ± 0.0717 kcal/mol. Besides, on pancreatic lipase [6], the “ΔS (entropy change)” value was −23.99 ± 0.10 J·mol^−1·K. On pancreatic lipase [6] (298 K), the “Kq (fluorescence-quenching rate constant)” value was 1.94 ± 0.10 ×10^12 L·mol^−1·s^−1, the “n (binding sites)” value stood at 1.14 ± 0.02 and the “ΔG (free energy)” value was -5.762 ± 0.0311 kcal/mol. Moreover, on pancreatic lipase [6] (310 K), the “Kq (fluorescence-quenching rate constant)” value was 4.28 ± 0.25 ×10^12 L·mol^−1·s^−1, the “n (binding sites)” value was 1.2 ± 0.02 and the “ΔG (free energy)” value was -6.319 ± 0.0598 kcal/mol.

As to `O=C(/C=C/c1ccc(O)cc1)CC(=O)/C=C/c1ccc(O)cc1` [bisdemethoxycurcumin, Bisdemethoxycurcumin], at pancreatic lipase [4], the inhibition type result is “competitive inhibitors; also recorded: reversible competitive inhibition” and the reversibility of inhibition entry is listed as “reversible”. Moreover, at pancreatic lipase [5], the “β-Turn (%) of pancreatic lipase” value is listed as 15.9%, the “α-Helix (%) of pancreatic lipase” value is on record as 21.3%, the “β-Sheet (%) of pancreatic lipase” value amounted to 21.7% and the “decrease of β-sheet of pancreatic lipase” value came out at 14.57%. At pancreatic lipase [6], the “Ka (binding constant), bound stated” value was above 10000 L/mol; the “binding sites” value is on record as around 1; the “ΔS (entropy change)” value was −14.33 ± 0.14 J·mol^−1·K. Also, on pancreatic lipase [6] (298 K), the “Kq (fluorescence-quenching rate constant)” value was 1.6 ± 0.07 ×10^12 L·mol^−1·s^−1, the “n (binding sites)” value came to 1.13 ± 0.03 and the “ΔG (free energy)” value was -5.476 ± 0.0574 kcal/mol. For the same compound, the “ΔG (free energy)” value at pancreatic lipase [6] (310 K) is -5.98 ± 0.0359 kcal/mol.
